Data published in the NIST ThermoML archive (doi:10.1016/j.jct.2012.09.026).
Numbers after ± are expanded uncertainties.

How the values were obtained:
[1] = Liquid, Vibrating tube method
[2] = xn = mol fraction of the nth substance listed; details: Liquid, x2 = 0

For `CC(C)(C)O` [2-methylpropan-2-ol], the mass density ([1]; 308.15 K, 101.3 kPa) was 770.14 ± 1 kg/m3, the mass density ([1]; 323.15 K, 101.3 kPa) was 753.94 ± 1 kg/m3 and the mass density ([1]; 323.15 K, 10000 kPa) was 764.58 ± 1 kg/m3. It also gave a mass density ([1]; 323.15 K, 25000 kPa) of 778.73 ± 1.1 kg/m3, a mass density ([1]; 323.15 K, 50000 kPa) of 798.2 ± 1.1 kg/m3 and a mass density ([1]; 323.15 K, 75000 kPa) of 813.79 ± 1.2 kg/m3. For the same compound, the mass density ([1]; 323.15 K, 100000 kPa) was 827.34 ± 1.3 kg/m3.

With `O` [water] the mass density ([1]; 278.15 K, 101.3 kPa) was 999.96 ± 1 kg/m3, the mass density ([1]; 278.15 K, 10000 kPa) was 1004.77 ± 1 kg/m3 and the mass density ([1]; 278.15 K, 25000 kPa) was 1011.88 ± 1.1 kg/m3. It also gave a mass density ([1]; 278.15 K, 50000 kPa) of 1023.2 ± 1.1 kg/m3, a mass density ([1]; 278.15 K, 75000 kPa) of 1033.91 ± 1.2 kg/m3 and a mass density ([1]; 278.15 K, 100000 kPa) of 1044.08 ± 1.3 kg/m3. It also gave a mass density ([1]; 288.15 K, 10000 kPa) of 1003.67 ± 1 kg/m3, a mass density ([1]; 288.15 K, 25000 kPa) of 1010.42 ± 1.1 kg/m3 and a mass density ([1]; 288.15 K, 50000 kPa) of 1021.21 ± 1.1 kg/m3. The mass density ([1]; 288.15 K, 75000 kPa) was 1031.47 ± 1.2 kg/m3, the mass density ([1]; 288.15 K, 100000 kPa) was 1041.23 ± 1.3 kg/m3 and the mass density ([1]; 298.15 K, 10000 kPa) was 1001.47 ± 1 kg/m3. It also gave a mass density ([1]; 298.15 K, 25000 kPa) of 1007.99 ± 1.1 kg/m3, a mass density ([1]; 298.15 K, 50000 kPa) of 1018.44 ± 1.1 kg/m3 and a mass density ([1]; 298.15 K, 75000 kPa) of 1028.37 ± 1.2 kg/m3. The mass density ([1]; 298.15 K, 100000 kPa) was 1037.86 ± 1.3 kg/m3, the mass density ([1]; 308.15 K, 10000 kPa) was 998.36 ± 1 kg/m3 and the mass density ([1]; 308.15 K, 25000 kPa) was 1004.75 ± 1.1 kg/m3. The mass density ([1]; 308.15 K, 50000 kPa) was 1014.97 ± 1.1 kg/m3, the mass density ([1]; 308.15 K, 75000 kPa) was 1024.71 ± 1.2 kg/m3 and the mass density ([1]; 308.15 K, 100000 kPa) was 1034 ± 1.3 kg/m3. It also gave a mass density ([1]; 323.15 K, 101.3 kPa) of 988.03 ± 1 kg/m3, a mass density ([1]; 323.15 K, 10000 kPa) of 992.31 ± 1 kg/m3 and a mass density ([1]; 323.15 K, 25000 kPa) of 998.61 ± 1.1 kg/m3. The mass density ([1]; 323.15 K, 50000 kPa) was 1008.68 ± 1.1 kg/m3, the mass density ([1]; 323.15 K, 75000 kPa) was 1018.27 ± 1.2 kg/m3 and the mass density ([1]; 323.15 K, 100000 kPa) was 1027.42 ± 1.3 kg/m3.

In the case of `O` [water] + CC(C)(C)O, the mass density ([2]; 278.15 K, 101.3 kPa, Vibrating tube method) is reported as 999.96 ± 1 kg/m3, the mass density ([2]; 278.15 K, 10000 kPa, Constant-volume piezometry) is reported as 1004.77 ± 1 kg/m3 and the mass density ([2]; 278.15 K, 25000 kPa, Constant-volume piezometry) is reported as 1011.88 ± 1.1 kg/m3. It also gave a mass density ([2]; 278.15 K, 50000 kPa, Constant-volume piezometry) of 1023.2 ± 1.1 kg/m3, a mass density ([2]; 278.15 K, 75000 kPa, Constant-volume piezometry) of 1033.91 ± 1.2 kg/m3 and a mass density ([2]; 278.15 K, 100000 kPa, Constant-volume piezometry) of 1044.08 ± 1.3 kg/m3. The mass density ([2]; 288.15 K, 10000 kPa, Constant-volume piezometry) was 1003.67 ± 1 kg/m3, the mass density ([2]; 288.15 K, 25000 kPa, Constant-volume piezometry) was 1010.42 ± 1.1 kg/m3 and the mass density ([2]; 288.15 K, 50000 kPa, Constant-volume piezometry) was 1021.21 ± 1.1 kg/m3. The mass density ([2]; 288.15 K, 75000 kPa, Constant-volume piezometry) was 1031.47 ± 1.2 kg/m3, the mass density ([2]; 288.15 K, 100000 kPa, Constant-volume piezometry) was 1041.23 ± 1.3 kg/m3 and the mass density ([2]; 298.15 K, 10000 kPa, Constant-volume piezometry) was 1001.47 ± 1 kg/m3. The mass density ([2]; 298.15 K, 25000 kPa, Constant-volume piezometry) was 1007.99 ± 1.1 kg/m3, the mass density ([2]; 298.15 K, 50000 kPa, Constant-volume piezometry) was 1018.44 ± 1.1 kg/m3 and the mass density ([2]; 298.15 K, 75000 kPa, Constant-volume piezometry) was 1028.37 ± 1.2 kg/m3. For the same compound, the mass density ([2]; 298.15 K, 100000 kPa, Constant-volume piezometry) was 1037.86 ± 1.3 kg/m3, the mass density ([2]; 308.15 K, 10000 kPa, Constant-volume piezometry) was 998.36 ± 1 kg/m3 and the mass density ([2]; 308.15 K, 25000 kPa, Constant-volume piezometry) was 1004.75 ± 1.1 kg/m3. For the same compound, the mass density ([2]; 308.15 K, 50000 kPa, Constant-volume piezometry) was 1014.97 ± 1.1 kg/m3, the mass density ([2]; 308.15 K, 75000 kPa, Constant-volume piezometry) was 1024.71 ± 1.2 kg/m3 and the mass density ([2]; 308.15 K, 100000 kPa, Constant-volume piezometry) was 1034 ± 1.3 kg/m3. The mass density ([2]; 323.15 K, 101.3 kPa, Vibrating tube method) was 988.03 ± 1 kg/m3, the mass density ([2]; 323.15 K, 10000 kPa, Constant-volume piezometry) was 992.31 ± 1 kg/m3 and the mass density ([2]; 323.15 K, 25000 kPa, Constant-volume piezometry) was 998.61 ± 1.1 kg/m3. The mass density ([2]; 323.15 K, 50000 kPa, Constant-volume piezometry) was 1008.68 ± 1.1 kg/m3, the mass density ([2]; 323.15 K, 75000 kPa, Constant-volume piezometry) was 1018.27 ± 1.2 kg/m3 and the mass density ([2]; 323.15 K, 100000 kPa, Constant-volume piezometry) was 1027.42 ± 1.3 kg/m3.
